Active and inactive are the calls of the source. The rule behind the calls is not given here.
Key:
[1] = Inhibition of human MEK1 activation by COT in COT-MEK-ERK coupling assay
[2] = biological target: T1, Dual specificity mitogen-activated protein kinase kinase 1 (Homo sapiens, UniProt Q02750); assay: Inhibition of activated human MEK1 in MEK-ERK coupling assay at 10 uM
[3] = biological target: T1, Dual specificity mitogen-activated protein kinase kinase 1; assay: Inhibition of ERK phosphorylation in THP1 cells; assay type: functional, cell-based; details: THP-1
[4] = Inhibition of LPS-induced TNFalpha production in human monocyte THP1 cells; assay type: functional, cell-based; details: THP-1
[5] = biological target: T1, Dual specificity mitogen-activated protein kinase kinase 1; assay: Inhibition of human MEK1 activation by bRaf in RAF-MEK-ERK coupling assay
[6] = biological target: T1, Dual specificity mitogen-activated protein kinase kinase 1; assay: Inhibition of activated human MEK1 in MEK-ERK coupling assay

T1 sequence (Q02750 whole entry): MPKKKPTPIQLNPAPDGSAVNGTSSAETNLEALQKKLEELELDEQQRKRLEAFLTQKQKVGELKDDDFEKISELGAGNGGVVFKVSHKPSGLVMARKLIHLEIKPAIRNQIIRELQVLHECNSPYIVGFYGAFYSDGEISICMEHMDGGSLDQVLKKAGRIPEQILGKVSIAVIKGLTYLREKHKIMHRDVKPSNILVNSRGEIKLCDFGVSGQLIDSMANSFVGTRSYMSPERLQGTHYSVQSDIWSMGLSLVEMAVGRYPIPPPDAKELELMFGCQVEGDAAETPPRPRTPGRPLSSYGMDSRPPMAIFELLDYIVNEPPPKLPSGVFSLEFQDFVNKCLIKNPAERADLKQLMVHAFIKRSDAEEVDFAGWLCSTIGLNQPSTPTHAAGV

| SMILES | IC50 [1] | Activity [2] | Activity [3] | IC50 [4] | IC50 [5] | IC50 [6] |
| --- | --- | --- | --- | --- | --- | --- |
| Cc1c(Cc2ccc(F)cc2)c(=O)oc2cc(OC(=O)N(C)C)ccc12 | 300 nM | inactive | Active | 200 nM | 300 nM |  |
| Cc1c(Cc2ccccc2)c(=O)oc2cc(OC(=O)C3CC3)ccc12 | 200 nM | inactive |  |  | 200 nM |  |
| Cc1c(Cc2ccccc2)c(=O)oc2cc(OC(=O)N(C)C)c(Cl)cc12 | 70 nM |  | Active | 90 nM |  | 10 µM |

Source: ChEMBL document CHEMBL1141961, “Identification of coumarin derivatives as a novel class of allosteric MEK1 inhibitors” (Bioorg Med Chem Lett, 2005)
